Source: PubChem BioAssay (NCI)
“And” between values parts separate entries of the source, which are not always exact repeats. Identical values can stand only once.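 Five compound concentrations were applied to cells in 96-well plates for 48 hours; endpoints were derived by simple linear interpolation of the resulting dose-response curve. GI50 is the concentration that inhibits growth by half. Definition used: TGI = concentration required for complete inhibition of growth.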

Tested on: MDA-MB-468 breast
Experiment: NCI anticancer screen, dose series, 48 h

Structure (SMILES)	GI50	TGI
OC(c1cc(C23CC4CC(CC(C4)C2)C3)nc2c(Cl)cc(Cl)cc12)C1CCCCN1 (stereo not given)	1480 nM	2810 nM
COc1cc(C2CC(c3ccc(Nc4ccnc5cc(Cl)ccc45)cc3)=NN2c2ccc(Cl)cc2)cc(OC)c1OC (stereo not given)	908 nM	9670 nM
Cc1ncc(C(=O)Nc2ccc(CN3CCN(C)CC3)c(C(F)(F)F)c2)cc1C#Cc1cnc(N)cc1C#N	1290 nM	3780 nM
CN(C)c1ccc(/C=C/c2cc[n+](C)c(/C=C/c3ccc(N(C)C)cc3)c2)cc1	96.9 nM	537 nM
Cc1cc(N2CCOCC2)cc2[nH]c(-c3c(NC[C@@H](O)c4cccc(Cl)c4)cc[nH]c3=O)nc12	3650 nM	14000 nM
COc1ccc(-c2ccc(-c3ccc(C(=N)N)o3)o2)cc1	864 nM	2840 nM
CCOC(=O)c1c2c(n3ccccc13)C(=O)c1ncccc1C2=O	2770 nM	12000 nM
Cn1cc(-c2ccc(-c3ccc(C4=NC5(CC5)C(=O)N4C[C@@H]4CCN(C(=O)C5CC5)C4)cc3)cc2)cn1	16900 nM	40100 nM
Cc1ccc(Cl)cc1NC(=O)c1sc2nc3c(cc2c1N)C(=O)CCC3	2740 nM	8760 nM
Cc1cnc(C(=O)NNc2nc3sc4c(c3c(=O)n2C)C(C)CCC4)cn1 (stereo not given)	278 nM	1070 nM
COc1cc(Nc2ncc(F)c(Nc3ccc4c(n3)N(COP(=O)(O)O)C(=O)C(C)(C)O4)n2)cc(OC)c1OC	1550 nM and 1650 nM	4740 nM and 5420 nM
C[N+]1=C(/C=C\C=C\c2ccccc2)C(C)(C)c2ccccc21	636 nM	4550 nM
O=C1C(=O)c2cccnc2-c2ncccc21	193 nM	491 nM
O=C1C[C@@H]2/C(=C(O)\C=C\c3ccccc3)C(=O)C=C[C@@H]2O1	1580 nM	3210 nM
C=C1CC2(OC1=O)C(=O)Nc1ccccc12 (stereo not given)	854 nM	2700 nM
CCN(CC)c1ccc(C(=O)c2ccc(N(CC)CC)cc2)cc1	298 nM	1660 nM
N#C/C(=C\c1ccc(Br)cc1)n1nnc2ccc(F)cc21	271 nM	867 nM
O=C1CCc2c(sc3[nH]c(=S)n(Cc4ccc(Cl)cc4)c(=O)c23)C1	299 nM	1210 nM
O=C(/C=C/c1ccc(C(F)(F)F)cc1)c1ccc(Nc2nc(NCCO)nc(Nc3ccc(Cl)cc3)n2)cc1	5540 nM	21300 nM
O=C(OC[C@H]1O[C@H](OC(=O)c2cc(O)c(O)c(OC(=O)c3cc(O)c(O)c(O)c3)c2)[C@H](OC(=O)c2cc(O)c(O)c(OC(=O)c3cc(O)c(O)c(O)c3)c2)[C@@H](OC(=O)c2cc(O)c(O)c(OC(=O)c3cc(O)c(O)c(O)c3)c2)[C@@H]1OC(=O)c1cc(O)c(O)c(OC(=O)c2cc(O)c(O)c(O)c2)c1)c1cc(O)c(O)c(OC(=O)c2cc(O)c(O)c(O)c2)c1	4750 nM	17800 nM
Cc1cnc(C(=O)Nc2nc3ccc(S(=O)(=O)Nc4ccc(C5(C(F)(F)F)CC5)cc4)cc3[nH]2)cn1	224 nM	1980 nM
O=C1C(Cl)=C(NCc2ccco2)C(=O)c2ccccc21	3710 nM	22000 nM
Cc1cn(-c2cc(NC(=O)c3ccc(C)c(Nc4nccc(-c5cccnc5)n4)c3)cc(C(F)(F)F)c2)cn1	1800 nM and 1750 nM	4060 nM and 8390 nM
S=P(N1CC1)(N1CC1)N1CC1	23700 nM	170000 nM
C=C1C(=O)O[C@H]2[C@H]1CC/C(Cn1cc(-c3ccccc3C(F)(F)F)nn1)=C\CC[C@@]1(C)O[C@@H]21	1140 nM	2800 nM
COc1cc(-c2nc(SCCC(C)C)nc(Nc3ccc(S(N)(=O)=O)cc3)c2C#N)cc(OC)c1OC	3070 nM	9960 nM
CCNC(=O)O[C@H]1CN[C@H](C#Cc2cc3ncnc(Nc4ccc(OCc5cccc(F)c5)c(Cl)c4)c3s2)C1	155 nM	1920 nM
COC(=O)[C@@H](C)C[C@H](Cc1ccccc1)NC(=O)c1csc([C@@H](C[C@H](C(C)C)N(C)C(=O)[C@@H](NC(=O)[C@H]2CCCCN2C)C2CC2)OC(C)=O)n1	–	> 16500 nM
